The values that follow are results of earlier work, collected in patent US20210106592A1, “METHODS AND COMPOSITIONS FOR THE TREATMENT OF TRAUMATIC BRAIN INJURY (TBI) AND RELATED DISORDERS” (priority 2017, published 2021).

Molecules are shown by their SMILES.

In data set [1] the test system is sigma. The note with it: recent basic research.
The subject of data set [2] is cholinergic receptors. Particulars: in vitro; last in the decreasing order H1, H2 > 5-HT2 > D2, D1 > a1 > cholinergic.
In data set [3] the target is serotonin (5-HT) reuptake (Homo sapiens, UniProt P31645).
Sequence of serotonin (5-HT) reuptake (P31645 whole entry): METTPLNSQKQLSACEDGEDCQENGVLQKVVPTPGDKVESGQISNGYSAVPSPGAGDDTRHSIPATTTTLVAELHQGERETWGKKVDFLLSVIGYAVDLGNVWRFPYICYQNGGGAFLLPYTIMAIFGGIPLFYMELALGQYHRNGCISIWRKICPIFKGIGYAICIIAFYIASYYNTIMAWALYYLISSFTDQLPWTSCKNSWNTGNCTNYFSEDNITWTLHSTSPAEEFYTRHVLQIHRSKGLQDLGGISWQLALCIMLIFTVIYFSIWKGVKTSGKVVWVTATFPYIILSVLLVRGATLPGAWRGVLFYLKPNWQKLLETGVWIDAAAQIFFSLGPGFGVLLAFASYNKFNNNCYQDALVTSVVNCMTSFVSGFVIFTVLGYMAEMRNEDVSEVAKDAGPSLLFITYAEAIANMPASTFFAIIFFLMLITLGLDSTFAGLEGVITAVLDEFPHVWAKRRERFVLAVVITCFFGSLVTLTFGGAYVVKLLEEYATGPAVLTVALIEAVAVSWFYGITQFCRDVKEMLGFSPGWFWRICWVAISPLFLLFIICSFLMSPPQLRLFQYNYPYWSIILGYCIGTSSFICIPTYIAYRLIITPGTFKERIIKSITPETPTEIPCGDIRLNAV
For data set [4], the target named is noradrenaline reuptake (Homo sapiens, UniProt P23975).
Sequence of noradrenaline reuptake (P23975 whole entry): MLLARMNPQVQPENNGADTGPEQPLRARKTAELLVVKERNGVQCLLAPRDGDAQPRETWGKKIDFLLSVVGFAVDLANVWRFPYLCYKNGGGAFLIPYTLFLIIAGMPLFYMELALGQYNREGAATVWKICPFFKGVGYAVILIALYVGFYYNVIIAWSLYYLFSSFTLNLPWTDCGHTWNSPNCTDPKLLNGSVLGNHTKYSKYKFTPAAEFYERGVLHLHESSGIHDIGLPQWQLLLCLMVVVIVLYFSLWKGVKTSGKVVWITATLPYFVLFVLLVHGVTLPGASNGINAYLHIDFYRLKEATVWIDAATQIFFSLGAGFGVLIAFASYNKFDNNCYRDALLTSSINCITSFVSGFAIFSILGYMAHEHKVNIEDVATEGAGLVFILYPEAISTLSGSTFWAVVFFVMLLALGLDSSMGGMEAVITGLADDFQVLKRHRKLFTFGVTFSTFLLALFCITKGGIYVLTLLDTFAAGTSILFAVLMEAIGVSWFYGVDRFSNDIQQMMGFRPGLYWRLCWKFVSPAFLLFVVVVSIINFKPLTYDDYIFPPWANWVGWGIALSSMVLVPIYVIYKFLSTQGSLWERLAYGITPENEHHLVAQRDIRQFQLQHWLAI
In data set [5] the test system is generalized anxiety disorders. The note with it: patients with generalized anxiety disorders; versus placebo and alprazolam.

On to `Cl.Cl.OCCN1CCN(CCCN2c3ccccc3C=Cc3ccccc32)CC1` [opipramol, 4-[3-(5H-dibenz[b,f]-azepine-5-yl)-propyl]-1-piperazine-ethanol dihydrochloride], for which the sigma ligand strength result in data set [1] is “strong sigma ligand”. Moreover, the “blockade of cholinergic receptors” value in data set [2] is “very weakly”. Also, the “reuptake inhibiting properties for serotonin (5-HT)” value in data set [3] is listed as “without reuptake inhibiting properties”. In addition, in data set [4], the “reuptake inhibiting properties for noradrenaline” value is “without reuptake inhibiting properties”. In addition, in data set [5], the anxiolytic efficacy entry was “superiority over placebo and similar efficacy to alprazolam”.
